# In patent publication US10538498B2, “1,3,4-oxadiazole sulfonamide derivative compounds as histone deacetylase 6 inhibitor, and the pharmaceutical composition comprising the same” (Chong Kun Dang Pharmaceutical Corp., priority 2015, dated 2020):
# Molecular target: T1, human recombinant HDAC6 (Homo sapiens, UniProt Q9UBN7)
# T1 construct: purchased Calbiochem 382180
# T1 sequence (Q9UBN7 1-1215): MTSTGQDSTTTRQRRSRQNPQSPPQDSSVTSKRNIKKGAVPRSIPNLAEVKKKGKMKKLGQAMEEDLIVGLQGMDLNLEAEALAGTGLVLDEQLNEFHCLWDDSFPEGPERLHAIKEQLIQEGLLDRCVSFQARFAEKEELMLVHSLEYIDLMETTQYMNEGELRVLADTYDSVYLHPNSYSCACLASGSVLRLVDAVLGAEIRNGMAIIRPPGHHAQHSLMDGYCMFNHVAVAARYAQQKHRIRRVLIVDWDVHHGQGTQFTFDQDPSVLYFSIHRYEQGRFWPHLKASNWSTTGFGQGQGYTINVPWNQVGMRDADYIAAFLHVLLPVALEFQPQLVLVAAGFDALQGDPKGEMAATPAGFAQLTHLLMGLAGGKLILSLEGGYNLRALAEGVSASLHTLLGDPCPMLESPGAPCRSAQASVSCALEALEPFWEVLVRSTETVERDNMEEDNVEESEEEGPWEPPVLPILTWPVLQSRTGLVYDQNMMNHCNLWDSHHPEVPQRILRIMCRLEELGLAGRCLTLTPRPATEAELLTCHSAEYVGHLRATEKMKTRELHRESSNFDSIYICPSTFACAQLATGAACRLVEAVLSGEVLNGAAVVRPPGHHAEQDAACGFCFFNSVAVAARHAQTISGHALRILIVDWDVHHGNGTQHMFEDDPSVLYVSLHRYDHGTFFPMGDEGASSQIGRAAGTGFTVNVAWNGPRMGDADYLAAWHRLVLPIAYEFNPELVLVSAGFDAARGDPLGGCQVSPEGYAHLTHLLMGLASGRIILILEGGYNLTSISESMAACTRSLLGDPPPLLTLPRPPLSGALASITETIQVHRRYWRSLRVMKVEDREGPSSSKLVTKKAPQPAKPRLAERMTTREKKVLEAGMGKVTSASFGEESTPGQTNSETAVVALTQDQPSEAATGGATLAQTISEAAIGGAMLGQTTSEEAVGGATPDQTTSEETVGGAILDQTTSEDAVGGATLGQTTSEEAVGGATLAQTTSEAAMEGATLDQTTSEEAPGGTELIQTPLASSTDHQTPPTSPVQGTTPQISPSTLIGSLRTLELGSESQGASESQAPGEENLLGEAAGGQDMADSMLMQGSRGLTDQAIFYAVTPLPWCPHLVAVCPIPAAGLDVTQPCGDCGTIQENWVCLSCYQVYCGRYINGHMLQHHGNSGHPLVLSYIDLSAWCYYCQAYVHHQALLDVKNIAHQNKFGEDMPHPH
# Assay: HDAC6 enzyme activity inhibition assay (HDAC Fluorimetric Drug Discovery Kit)
# Type: biochemical
# Conditions: for HDAC6 selectivity (fold): HDAC1 vs HDAC6; for IC50: same protocol as the HDAC1 enzyme activity test
# Method in brief: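 IC50s derived from fluorescence (Ex 360, Em 460) read after a 30-min developer step. Beforehand, compounds in 5-fold dilution series reacted 60 min at 30° C with 0.3 μg human recombinant enzyme and 10 μM Fluor de Lys-SIRT1 substrate.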
SMILES,HDAC6 selectivity (fold),IC50 [nM]
"CS(=O)(=O)N(Cc1ccc(-c2nnc(C(F)F)o2)cn1)c1cccc(Br)c1 [Compound 11354, N-(3-bromophenyl)-N-((5-(5-(difluoromethyl)-1,3,4-oxadiazol-2-yl)pyridin-2-yl)methyl)methanesulfonamide]",12500,8
"Cc1cccc(N(Cc2ccc(-c3nnc(C(F)F)o3)cn2)S(C)(=O)=O)c1 [Compound 11355, N-((5-(5-(difluoromethyl)-1,3,4-oxadiazol-2-yl)pyridin-2-yl)methyl)-N-(m-tolyl)methanesulfonamide]",6250,16
"CCS(=O)(=O)N(Cc1ccc(-c2nnc(C(F)F)o2)cn1)c1cccc(Br)c1 [Compound 11366, N-(3-bromophenyl)-N-((5-(5-(difluoromethyl)-1,3,4-oxadiazol-2-yl)pyridin-2-yl)methyl)ethanesulfonamide]",9091,11
"CN1CCC(S(=O)(=O)N(Cc2ccc(-c3nnc(C(F)F)o3)cn2)c2ccccc2)CC1 [Compound 11367, N-((5-(5-(difluoromethyl)-1,3,4-oxadiazol-2-yl)pyridin-2-yl)methyl)-1-methyl-N-phenylpiperidine-4-sulfonamide]",6250,16
"CCN1CCC(S(=O)(=O)N(Cc2ccc(-c3nnc(C(F)F)o3)cc2F)c2ccccc2)CC1 [Compound 11373, N-(4-(5-(difluoromethyl)-1,3,4-oxadiazol-2-yl)-2-fluorobenzyl)-1-ethyl-N-phenylpiperidine-4-sulfonamide]",10000,10
"CCS(=O)(=O)N(Cc1ccc(-c2nnc(C(F)F)o2)cn1)c1ccc(CN2CCN(C(C)=O)CC2)cc1 [Compound 11386, N-(4-((4-acetylpiperazin-1-yl)methyl)phenyl)-N-((5-(5-(difluoromethyl)-1,3,4-oxadiazol-2-yl)pyridin-2-yl)methyl)ethanesulfonamide]",1316,76
"O=S(=O)(C1CCOCC1)N(Cc1ccc(-c2nnc(C(F)F)o2)cn1)c1ccccc1 [Compound 11390, N-((5-(5-(difluoromethyl)-1,3,4-oxadiazol-2-yl)pyridin-2-yl)methyl)-N-phenyltetrahydro-2H-pyran-4-sulfonamide]",7692,13
"CCS(=O)(=O)N(Cc1ccc(-c2nnc(C(F)F)o2)cc1F)c1cccc(CN2CCN(C(C)=O)CC2)c1 [Compound 11403, N-(3-((4-acetylpiperazin-1-yl)methyl)phenyl)-N-(4-(5-(difluoromethyl)-1,3,4-oxadiazol-2-yl)-2-fluorobenzyl)ethanesulfonamide]",1282,78
"CCS(=O)(=O)N(Cc1ccc(-c2nnc(C(F)F)o2)cn1)c1ccc(F)c(Cl)c1 [Compound 11411, N-(3-chloro-4-fluorophenyl)-N-((5-(5-(difluoromethyl)-1,3,4-oxadiazol-2-yl)pyridin-2-yl)methyl)ethanesulfonamide]",14286,7

# The remaining compounds from weak to strong by IC50, led by results:
HDAC6 selectivity (fold),IC50 [nM],SMILES
104,960,"CS(=O)(=O)N(Cc1ccc(-c2noc(C(F)(F)F)n2)cc1)Cc1ccc(-c2nnc(C(F)F)o2)cc1F [Compound 11389, N-(4-(5-(difluoromethyl)-1,3,4-oxadiazol-2-yl)-2-fluorobenzyl)-N-(4-(5-(trifluoromethyl)-1,2,4-oxadiazol-3-yl)benzyl)methanesulfonamide]"
435,230,"CCS(=O)(=O)N(Cc1ccc(-c2nnc(C(F)(F)F)o2)cc1F)c1cccc(CN2CCN(C(C)=O)CC2)c1 [Compound 11406, N-(3-((4-acetylpiperazin-1-yl)methyl)phenyl)-N-(2-fluoro-4-(5-(trifluoromethyl)-1,3,4-oxadiazol-2-yl)benzyl)ethanesulfonamide]"
952,105,"CCS(=O)(=O)N(Cc1ccc(-c2nnc(C(F)F)o2)cc1F)c1cccc(CN2CCN(S(C)(=O)=O)CC2)c1 [Compound 11404, N-(4-(5-(difluoromethyl)-1,3,4-oxadiazol-2-yl)-2-fluorobenzyl)-N-(3-((4-(methylsulfonyl)piperazin-1-yl)methyl)phenyl)ethanesulfonamide]"
1000,100,"CCS(=O)(=O)N(Cc1ccc(-c2nnc(C(F)F)o2)cc1F)c1cccc(CN2CCS(=O)(=O)CC2)c1 [Compound 11392, N-(4-(5-(difluoromethyl)-1,3,4-oxadiazol-2-yl)-2-fluorobenzyl)-N-(3-((1,1-dioxidothiomorpholino)methyl)phenyl)ethanesulfonamide]"
1087,92,"CCS(=O)(=O)N(Cc1ccc(-c2nnc(C(F)F)o2)cn1)c1ccc(CN2CCN(S(C)(=O)=O)CC2)cc1 [Compound 11387, N-((5-(5-(difluoromethyl)-1,3,4-oxadiazol-2-yl)pyridin-2-yl)methyl)-N-(4-((4-(methylsulfonyl)piperazin-1-yl)methyl)phenyl)ethanesulfonamide]"
1316,76,"CCS(=O)(=O)N(Cc1ccc(-c2nnc(C(F)F)o2)cc1F)c1ccc(CN2CCN(C(C)=O)CC2)cc1 [Compound 11402, N-(4-((4-acetylpiperazin-1-yl)methyl)phenyl)-N-(4-(5-(difluoromethyl)-1,3,4-oxadiazol-2-yl)-2-fluorobenzyl)ethanesulfonamide]"
1333,75,"CCS(=O)(=O)N(Cc1ccc(-c2nnc(C(F)F)o2)cn1)c1cccc(CN2CCN(C(C)=O)CC2)c1 [Compound 11388, N-(3-((4-acetylpiperazin-1-yl)methyl)phenyl)-N-((5-(5-(difluoromethyl)-1,3,4-oxadiazol-2-yl)pyridin-2-yl)methyl)ethanesulfonamide]"
1493,67,"CCS(=O)(=O)N(Cc1ccc(-c2nnc(C(F)F)o2)cc1F)c1cccc(CN2CCN(C)CC2)c1 [Compound 11405, N-(4-(5-(difluoromethyl)-1,3,4-oxadiazol-2-yl)-2-fluorobenzyl)-N-(3-((4-methylpiperazin-1-yl)methyl)phenyl)ethanesulfonamide]"
4545,22,"CC(C)(O)CN1CCC(S(=O)(=O)N(Cc2ccc(-c3nnc(C(F)F)o3)cc2F)c2ccccc2)CC1 [Compound 11377, N-(4-(5-(difluoromethyl)-1,3,4-oxadiazol-2-yl)-2-fluorobenzyl)-1-(2-hydroxy-2-methylpropyl)-N-phenylpiperidine-4-sulfonamide]"
6667,15,"CCN1CCC(S(=O)(=O)N(Cc2ccc(-c3nnc(C(F)F)o3)cn2)c2ccccc2)CC1 [Compound 11368, N-((5-(5-(difluoromethyl)-1,3,4-oxadiazol-2-yl)pyridin-2-yl)methyl)-1-ethyl-N-phenylpiperidine-4-sulfonamide]"
7692,13,"CS(=O)(=O)N1CCC(S(=O)(=O)N(Cc2ccc(-c3nnc(C(F)F)o3)cn2)c2ccccc2)CC1 [Compound 11426, N-((5-(5-(difluoromethyl)-1,3,4-oxadiazol-2-yl)pyridin-2-yl)methyl)-1-(methylsulfonyl)-N-phenylpiperidine-4-sulfonamide]"
8333,12,"CCS(=O)(=O)N(Cc1ccc(-c2nnc(C(F)F)o2)cn1)c1ccccc1 [Compound 11412, N-((5-(5-(difluoromethyl)-1,3,4-oxadiazol-2-yl)pyridin-2-yl)methyl)-N-phenylethanesulfonamide]"
11111,9,"CN1CCC(S(=O)(=O)N(Cc2ccc(-c3nnc(C(F)F)o3)cc2F)c2ccccc2)CC1 [Compound 11372, N-(4-(5-(difluoromethyl)-1,3,4-oxadiazol-2-yl)-2-fluorobenzyl)-1-methyl-N-phenylpiperidine-4-sulfonamide]"
